One series addresses ATX (Homo sapiens, UniProt Q13822). Kind of series: Enzyme activity screening in vitro with LPC as substrate (Amplex Red fluorescence). It counts as biochemical. The note with it: inhibitory activity against ATX. The source says:
Analysis In Vitro: LPC was Used as Substrate for Screening Enzyme Activity
Principle: Lysophosphatidylcholine (LPC) as substrate is hydrolyzed by using the activity of lysoPLD enzyme, to produce lysophosphatidic acid (LPA) and choline, which is oxidized to produce H2O2 under the action of choline oxidase. In presence of horse radish peroxidase (HPR), Amplex Red reagent is reacted with H2O2 in a quantitative chemistry ratio of 1 to 1, to produce strong fluorescence products, which are detected by a fluorescent quantitative test.
20 μl of the above mixed solution 1 was added to each hole of an experiment board, […]. The compounds diluted with DMSO were transferred into an experiment board with Echo550. The reaction buffer solution was used for preparing a mixed solution 2 of […] LPC and 400 μM Amplex Red in a final concentration. 20 μl of the above mixed solution 2 was added to each hole of the experiment board. After addition, the experiment board was shook for 30 seconds on a shaker, and incubated for 30 minutes. Envision was used to read the fluorescence signals with an exciting light at 530 nm and emitted light at 590 nm.

Series [1] is described as follows: Pharmacokinetics test in mice. It counts as in vivo. The note with it: male SD mice; for F: absolute bioavailability, oral 5 mg/kg vs intravenous 1 mg/kg; for AUC / half-life: mouse, plasma. The source says:
Pharmacokinetics Test in Mice
Male SD mice were selected for pharmacokinetics test study, plasma concentration at different time points were quantitatively determined by LC/MS/MS method after the mice were intravenously injected and orally administrated with the compounds to be tested, thereby evaluating pharmacokinetics characteristic of the compounds to be tested in SD mice.
SD mice (free food and drink, 6 to 8 weeks old) were intravenously administrated via a foot injection with a clear solution of the compounds to be tested, alternatively, SD mice (free food and drink, 6 to 8 week old) were intragastrically administrated with a suspension of the compounds to be tested. Blood samples were collected from the tail veins of the mice 0.083, 0.25, 0.5, 1, 2, 4, 6, 8, 10, and 24 hours after administration, and each sampling was 0.15 mL. All collected blood samples were placed into centrifuge tubes with EDTA-K2, turned upside and down to mix the anticoagulant with the blood well. The plasma was separated by centrifugation at 1500 g for 10 min at 4° C. within […]. The plasma sample was transferred into a new centrifuge tube and stored at −90° C. to −60° C. until the analysis was performed. LC-MS/MS was used to measure the blood concentration of the compounds to be tested of the present disclosure, and the pharmacokinetic parameters, as well as absolute bioavailability, were calculated by a non-compartment model in Pharsight Phoenix 8.0 software, as shown in Table 2.

[2] abbreviates: Intravenous injection (1 mg/kg).

The compound `CCc1nc2sc(C3CCN(CC(=O)N4CCOCC4)CC3)cn2c1N(CC)c1nc(-c2ccc(F)cc2)c(C#N)s1` [Embodiment 22, 2-(ethyl(6-ethyl-2-(1-(2-morpholino-2-oxoethyl)piperidin-4-yl)imidazo[2,1-b]thiazol-5-yl)amino)-4-(4-fluorophenyl)thiazole-5-carbonitrile] came in with an IC50 against ATX of 0.01 to 100 nM. In series [1], this compound registered an F of 39%. In series [1] (setting [2]), this compound had an area under the curve (AUC) of 649 ng·h/mL and a half-life of 4.56 h. Also, in series [1] (Oral administration (5 mg/kg)), the AUC turned out to be 1260 ng·h/mL and the half-life was 4.19 h.

Compound `CCc1nc2sc(C3CCN(CC(=O)NC4COC4)CC3)cn2c1N(CC)c1nc(-c2ccc(F)cc2)c(C#N)s1` [Embodiment 21, 2-(4-(5-((5-cyano-4-(4-fluorophenyl)thiazol-2-yl)(ethyl)amino)-6-ethylimidazo[2,1-b]thiazol-2-yl)piperidin-1-yl)-N-(3-oxacyclobutyl)acetamide] came in with an IC50 against ATX of 0.01 to 100 nM. For the same compound, the F in series [1] is listed as 114%. Also, the AUC stood at 1040 ng·h/mL in series [1] (setting [2]) and 5500 ng·h/mL in series [1] (Oral administration (5 mg/kg)). For the same compound, the half-life is 3.32 h in series [1] (setting [2]) and 2.61 h in series [1] (Oral administration (5 mg/kg)).

At ATX, `CCc1nc2sc(C3CCN(CC(=O)NC4CCOCC4)CC3)cn2c1N(CC)c1nc(-c2ccc(F)cc2)c(C#N)s1` [Embodiment 23, 2-(4-(5-((5-cyano-4-(4-fluorophenyl)thiazol-2-yl)(ethyl)amino)-6-ethylimidazo[2,1-b]thiazol-2-yl)piperidin-1-yl)-N-(tetrahydro-2H-pyran-4-yl)acetamide] gave a concentration for half-maximal inhibition (IC50) of 0.01 to 100 nM. Further, the F in series [1] is 70%. Besides, the figures for the exposure (AUC) in series [1] (setting [2]) and in series [1] (Oral administration (5 mg/kg)) were 1180 ng·h/mL and 4190 ng·h/mL, respectively. Further, the half-life in series [1] (setting [2]) is 4.18 h; in series [1] (Oral administration (5 mg/kg)) it was 3.93 h.

Regarding `CCc1nc2sc(C3CCN(CC(=O)N4CC(O)C4)CC3)cn2c1N(CC1CC1)c1nc(-c2ccc(F)cc2)c(C#N)s1` [Embodiment 2, 2-(cyclopropylmethyl(6-ethyl-2-(1-(2-(3-hydroxyazetidin-1-yl)-2-oxoethyl)piperidin-4-yl)imidazo[2,1-b]thiazol-5-yl)amino)-4-(4-fluorophenyl) thiazole-5-carbonitrile], the IC50 at ATX lay within 0.01 to 100 nM. The F in series [1] is 54%. Besides, in series [1] (setting [2]), the area under the curve (AUC) is 972 ng·h/mL and the half-life was 2.84 h. In series [1] (Oral administration (5 mg/kg)), this compound had an AUC of 2720 ng·h/mL and a half-life of 3.63 h.

`CCc1nc2sc(C3CCN(CC(=O)N4CC(O)C4)CC3)cn2c1N(c1nc(-c2ccc(F)cc2)c(C#N)s1)C(C)C` [Embodiment 25, 2-((6-ethyl-2-(1-(2-(3-hydroxyazetidin-1-yl)-2-oxoethyl)piperidin-4-yl)imidazo[2,1-b]thiazol-5-yl)(isopropyl)amino)-4-(4-fluorophenyl)thiazole-5-carbonitrile] came in with a concentration for half-maximal inhibition (IC50) against ATX of 0.01 to 100 nM. The compound further registered a F in series [1] of 55%. Moreover, the figures for the exposure (AUC) in series [1] (setting [2]) and in series [1] (Oral administration (5 mg/kg)) were 732 ng·h/mL and 1900 ng·h/mL, respectively. Also, the half-life is 3.11 h in series [1] (setting [2]) and 3.83 h in series [1] (Oral administration (5 mg/kg)).

As to `CCc1nc2sc(C3CCN(CC(=O)N4CC(O)C4)CC3)cn2c1N(CC)c1nc(-c2ccc(F)cc2)c(C#N)s1` [Embodiment 1, 2-(ethyl(6-ethyl-2-(1-(2-(3-hydroxyazetidin-1-yl)-2-oxoethyl)piperidin-4-yl)imidazo[2,1-b]thiazol-5-yl)amino)-4-(4-fluorophenyl)thiazole-5-carbonitrile], the half-inhibitory concentration (IC50) at ATX is 0.01 to 100 nM. This compound also displayed a F in series [1] of 70%. In series [1] (setting [2]), this compound gave an AUC of 1670 ng·h/mL and a half-life of 4.18 h. In series [1] (Oral administration (5 mg/kg)), this compound gave an exposure (AUC) of 5800 ng·h/mL and a half-life of 3.21 h.

On to `CCc1nc2sc(C3CCN(CC(=O)N4CC(O)C4)CC3)cn2c1N(c1nc(-c2ccc(F)cc2)c(C#N)s1)C1CC1` [Embodiment 24, 2-(cyclopropyl(6-ethyl-2-(1-(2-(3-hydroxyazetidin-1-yl)-2-oxoethyl)piperidin-4-yl)imidazo[2,1-b]thiazol-5-yl)amino)-4-(4-fluorophenyl)thiazole-5-carbonitrile], for which the IC50 against ATX was 100 to 500 nM. For the same compound, the F in series [1] is 43%. In series [1] (setting [2]), this compound showed an AUC of 1170 ng·h/mL and a half-life of 2.14 h. In series [1] (Oral administration (5 mg/kg)), this compound showed an AUC of 2520 ng·h/mL and a half-life of 2.23 h.

The values above are taken from patent publication US20240002401A1, “IMIDAZOTHIAZOLE COMPOUNDS, PHARMACEUTICAL COMPOSITIONS, AND USES THEREOF” (GUANGZHOU HENOVCOM BIOSCIENCE CO., LTD., priority 2020, published 2024).
